The target in assay [1] is T1, PR (progesterone receptor) (Homo sapiens, UniProt P06401).
T1 sequence (P06401 1-933): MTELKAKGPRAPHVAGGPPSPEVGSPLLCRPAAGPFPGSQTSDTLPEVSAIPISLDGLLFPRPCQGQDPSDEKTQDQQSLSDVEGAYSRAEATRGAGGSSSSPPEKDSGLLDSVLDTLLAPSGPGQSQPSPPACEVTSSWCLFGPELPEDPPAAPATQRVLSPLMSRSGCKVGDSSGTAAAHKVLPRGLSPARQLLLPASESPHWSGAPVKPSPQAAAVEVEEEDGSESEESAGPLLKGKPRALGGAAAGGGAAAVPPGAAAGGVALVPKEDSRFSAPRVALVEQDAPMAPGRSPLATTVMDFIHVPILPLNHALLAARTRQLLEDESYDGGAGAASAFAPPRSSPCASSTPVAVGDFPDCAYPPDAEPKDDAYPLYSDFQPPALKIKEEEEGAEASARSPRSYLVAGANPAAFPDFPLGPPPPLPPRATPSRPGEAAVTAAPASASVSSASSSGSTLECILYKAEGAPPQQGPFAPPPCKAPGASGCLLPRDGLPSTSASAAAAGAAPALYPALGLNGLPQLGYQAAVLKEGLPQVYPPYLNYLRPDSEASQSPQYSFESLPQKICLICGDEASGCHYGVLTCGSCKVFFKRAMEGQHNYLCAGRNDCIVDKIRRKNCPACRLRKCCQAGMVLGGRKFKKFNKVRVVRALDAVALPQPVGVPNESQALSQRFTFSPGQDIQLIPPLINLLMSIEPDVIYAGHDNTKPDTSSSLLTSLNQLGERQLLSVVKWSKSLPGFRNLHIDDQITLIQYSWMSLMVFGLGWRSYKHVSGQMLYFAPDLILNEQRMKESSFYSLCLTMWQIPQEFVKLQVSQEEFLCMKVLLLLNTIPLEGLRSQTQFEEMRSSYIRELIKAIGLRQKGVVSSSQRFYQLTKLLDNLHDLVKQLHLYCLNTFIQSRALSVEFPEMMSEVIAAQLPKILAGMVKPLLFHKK
Nature of the assay: Relative binding activity (RBA) at PR, progesterone = 100%. As to conditions: by Kaufmann.

The next assay deals with T2, GR (Homo sapiens, UniProt P04150).
T2 sequence (P04150 1-777): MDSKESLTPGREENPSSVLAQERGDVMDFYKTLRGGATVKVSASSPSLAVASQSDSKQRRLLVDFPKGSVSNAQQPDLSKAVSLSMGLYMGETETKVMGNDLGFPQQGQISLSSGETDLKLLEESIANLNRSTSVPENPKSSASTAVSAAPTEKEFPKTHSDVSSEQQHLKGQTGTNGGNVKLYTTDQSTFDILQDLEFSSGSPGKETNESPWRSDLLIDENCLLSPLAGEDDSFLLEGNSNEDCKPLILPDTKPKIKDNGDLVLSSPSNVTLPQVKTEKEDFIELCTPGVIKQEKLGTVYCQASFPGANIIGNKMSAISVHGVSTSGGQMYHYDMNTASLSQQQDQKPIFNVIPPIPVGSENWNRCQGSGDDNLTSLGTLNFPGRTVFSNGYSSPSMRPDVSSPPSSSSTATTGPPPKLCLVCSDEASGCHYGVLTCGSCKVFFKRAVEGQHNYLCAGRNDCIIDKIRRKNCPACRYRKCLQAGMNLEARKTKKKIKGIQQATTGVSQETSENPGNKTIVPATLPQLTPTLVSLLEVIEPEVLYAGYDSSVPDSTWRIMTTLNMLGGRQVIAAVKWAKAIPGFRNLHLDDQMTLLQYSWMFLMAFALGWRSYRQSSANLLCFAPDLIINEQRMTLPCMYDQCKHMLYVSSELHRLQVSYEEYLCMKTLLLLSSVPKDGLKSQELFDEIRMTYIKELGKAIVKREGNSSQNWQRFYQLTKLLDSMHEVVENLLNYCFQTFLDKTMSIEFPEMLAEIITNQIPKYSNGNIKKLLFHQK
The assay is described as follows: Relative binding activity (RBA) at GR, dexamethasone = 100%. The settings on record: by Kaufmann.

In a further assay the test system is pregnant rats. The assay is described as follows: Abortifacient activity in pregnant rats. The format is in vivo, rat. As to conditions: s.c.; treatment days 5-7 of pregnancy, autopsy day 9; * SAS, probit procedure. The source says: The guinea pig is considered as relevant model of human gestation and parturition (Elger W, Fähnrich M, Beier S, Quing S S, Chwalisz K (1987). Endometrial and myometrial effects of progesterone antagonists in pregnant guinea pigs. Am J Obstet Gynecol 157: 1065-1074; Elger W, Neef G, Beier S, Fähnrich M, Gründel M, Heermann J, Malmendier A, Laurent D, Puri C P, Singh M M, Hasan S H, Becker H (1992). Evaluation of antifertility activities of antigestagens in animal model. In: Puri C P and Van Look P F A (eds), Current Concepts in Fertility Regulation and Reproduction. Wiley Eastern Limited, New Delhi, pp. 303-328; Elger W, Faehnrich M, Beier S, Qing S S, Chwalisz K (1986). Mechanism of action of progesterone antagonists in pregnant guinea pigs. Contraception 6: 47-62; Elger W, Chwalisz K, Faehnrich M, Hasan S H, Laurent D, Beier S, Ottow E, Neef G, Garfield R E (1990). Studies on labor-conditioning and labor-inducing effects of antiprogesterones in animal model. In: Garfield R E (eds), Norwell, pp. 153-175.) The mechanism of abortion of antiprogestins in this species is the initiation of labor and finally the expulsion of the conceptus. Abortifacient effects in the rat during very early pregnancy reflect inhibitory effects on nidation rather than initiation of uterine contractions. Studies in the rat model lead to “overestimation” of the potential of antiprogestins to terminate pregnancy in humans. Conversely, in the guinea pig model, irrespective of the antiprogestin doses, there were high rates of ongoing pregnancies similar to the situation in humans (Elger et al., Current Concepts in Fertility Regulation and Reproduction cited above). Furthermore, in both humans and guinea pigs, there is a strong synergism between antiprogestins and prostaglandins with respect the induction of labor (see the articles cited above and Elger W, Beier S (1983). Prostaglandine and Antigestagene für den Schwangerschaftsabbruch (Prostaglandins and antigestagens for pregnancy termination). German Patent DE 3337450 12; Van Look P, Bygdeman M (1989). Antiprogestational steroids: a new dimension in human fertility regulation. Oxford reviews of reproductive medicine 11: 2-60).

A value given as a limit tells only on which side of the number the result lay.

Turning to `COC[C@]1(OC)CC[C@H]2[C@@H]3CCC4=CC(=O)CCC4=C3[C@@H](c3ccc(/C=N/O)cc3)C[C@@]21C` [J867, 4-[17β-Methoxy-17α-(methoxymethyl)-3-oxoestra-4,9-dien-11β-yl]benzaldehyd-(1E)-oxim], the “RBA (%) PR” value in assay [1] came out at 302%. At GR, the “RBA (%) GR” value is given as 78%. In the assay on pregnant rats, the “abortifacient activity ED50, rat” value is listed as 0.65* mg/animal/day.
The like results for `CCNC(=O)O/N=C/c1ccc([C@H]2C[C@@]3(C)[C@@H](CC[C@]3(COC)OC)[C@@H]3CCC4=CC(=O)CCC4=C32)cc1` [J956, 4-[17β-Methoxy-17α-(methoxymethyl)-3-oxoestra-4,9-dien-11β-yl]benzaldehyd-(1E)-[O-(ethylamino)carbonyl]oxim] were, in that order, 345%, 154% and 0.64* mg/animal/day.
The like results for `CCSC(=O)O/N=C/c1ccc([C@H]2C[C@@]3(C)[C@@H](CC[C@]3(COC)OC)[C@@H]3CCC4=CC(=O)CCC4=C32)cc1` [J1042, 4-[17β-Methoxy-17α-(methoxymethyl)-3-oxoestra-4,9-dien-11β-yl]benzaldehyd-(1E)-[O-(ethylthio)carbonyl]oxim] were, in that order, 164%, 42% and more than 10 mg/animal/day.

(Values after patent US8193252B1, “Mesoprogestins (progesterone receptor modulators) for the treatment and prevention of benign hormone dependent gynecological disorders” (Bayer Pharma AG, priority 1999, dated 2012).)
